Laboratory results from ChEMBL document CHEMBL4229379, “Synthesis and structure-activity relationship of novel bisindole amidines active against MDR Gram-positive and Gram-negative bacteria” (Eur J Med Chem, 2018).
In brackets after ≈: the same amount, converted by molar mass.

Key:
[1] = tested on: Enterobacter cloacae; experiment: Antibacterial activity against new delhi metallo-beta-lactamase-1 harboring Enterobacter cloacae 13-1 after 18 hrs by CLSI broth microdilution method; assay type: functional
[2] = tested on: Escherichia coli; experiment: Antibacterial activity against extended-spectrum beta-lactamase harboring Escherichia coli 13-1 after 18 hrs by CLSI broth microdilution method; assay type: functional
[3] = tested on: Klebsiella pneumoniae; experiment: Antibacterial activity against carbapenem-resistant Klebsiella pneumoniae 12-11 after 18 hrs by CLSI broth microdilution method; assay type: functional
[4] = tested on: Enterobacter cloacae; experiment: Antibacterial activity against new delhi metallo-beta-lactamase-1 harboring Enterobacter cloacae CDC1000654 after 18 hrs by CLSI broth microdilution method; assay type: functional
[5] = tested on: Klebsiella pneumoniae; experiment: Antibacterial activity against carbapenem-resistant Klebsiella pneumoniae 12-12 after 18 hrs by CLSI broth microdilution method; assay type: functional
[6] = tested on: Escherichia coli; experiment: Antibacterial activity against extended-spectrum beta-lactamase harboring Escherichia coli CDC1001728 after 18 hrs by CLSI broth microdilution method; assay type: functional
[7] = tested on: Klebsiella pneumoniae; experiment: Antibacterial activity against new delhi metallo-beta-lactamase-1 harboring Klebsiella pneumoniae 13-1 after 18 hrs by CLSI broth microdilution method; assay type: functional
[8] = tested on: Acinetobacter calcoaceticus; experiment: Antibacterial activity against carbapenem-resistant Acinetobacter calcoaceticus 12-6 after 18 hrs by CLSI broth microdilution method; assay type: functional
[9] = tested on: Klebsiella aerogenes; experiment: Antibacterial activity against carbapenem-resistant Enterobacter aerogenes 11-4 after 18 hrs by CLSI broth microdilution method; assay type: functional
[10] = tested on: Acinetobacter calcoaceticus; experiment: Antibacterial activity against new delhi metallo-beta-lactamase-1 harboring Acinetobacter calcoaceticus 13-1 after 18 hrs by CLSI broth microdilution method; assay type: functional
[11] = tested on: Klebsiella pneumoniae; experiment: Antibacterial activity against new delhi metallo-beta-lactamase-1 harboring Klebsiella pneumoniae ATCC BAA-2146 after 18 hrs by CLSI broth microdilution method; assay type: functional
[12] = tested on: Escherichia coli; experiment: Antibacterial activity against extended-spectrum beta-lactamase deficient Escherichia coli 1515 after 18 hrs by CLSI broth microdilution method; assay type: functional; details: Escherichia coli, 1515, 18 h
[13] = tested on: Proteus mirabilis; experiment: Antibacterial activity against Proteus mirabilis 12-6 after 18 hrs by CLSI broth microdilution method; assay type: functional; details: 12-6, 18 h
[14] = tested on: Klebsiella pneumoniae; experiment: Antibacterial activity against extended-spectrum beta-lactamase deficient Klebsiella pneumoniae 7 after 18 hrs by CLSI broth microdilution method; assay type: functional; details: Klebsiella pneumoniae, 7, 18 h
[15] = tested on: Enterococcus faecalis; experiment: Antibacterial activity against vancomycin-sensitive Enterococcus faecalis 12-5 after 18 hrs by CLSI broth microdilution method; assay type: functional; details: 12-5, 18 h
[16] = tested on: Klebsiella pneumoniae; experiment: Antibacterial activity against extended-spectrum beta-lactamase deficient Klebsiella pneumoniae 12-4 after 18 hrs by CLSI broth microdilution method; assay type: functional; details: 12-4, 18 h
[17] = tested on: Enterococcus faecalis; experiment: Antibacterial activity against vancomycin-sensitive Enterococcus faecalis ATCC 29212 after 18 hrs by CLSI broth microdilution method; assay type: functional; details: ATCC 29212, 18 h
[18] = tested on: Klebsiella pneumoniae; experiment: Antibacterial activity against extended-spectrum beta-lactamase harboring Klebsiella pneumoniae 12-8 after 18 hrs by CLSI broth microdilution method; assay type: functional; details: 12-8, 18 h
[19] = tested on: Staphylococcus aureus; experiment: Antibacterial activity against methicillin-sensitive Staphylococcus aureus 15 after 18 hrs by CLSI broth microdilution method; assay type: functional; details: Staphylococcus aureus, 15, 18 h
[20] = tested on: Klebsiella aerogenes; experiment: Antibacterial activity against Enterobacter aerogenes ATCC 13048 after 18 hrs by CLSI broth microdilution method; assay type: functional; details: ATCC 13048, 18 h
[21] = Cytotoxicity against HEK293T cells assessed as reduction in cell viability after 48 hrs by MTS assay; assay type: cell-based, HEK-293T; details: human
[22] = tested on: Staphylococcus epidermidis; experiment: Antibacterial activity against methicillin-sensitive Staphylococcus epidermidis ATCC 12228 after 18 hrs by CLSI broth microdilution method; assay type: functional; details: ATCC 12228, 18 h
[23] = tested on: Citrobacter freundii; experiment: Antibacterial activity against Citrobacter freundii ATCC 43864 after 18 hrs by CLSI broth microdilution method; assay type: functional; details: ATCC 43864, 18 h
[24] = tested on: Staphylococcus aureus; experiment: Antibacterial activity against methicillin-sensitive Staphylococcus aureus 12-28 after 18 hrs by CLSI broth microdilution method; assay type: functional; details: 12-28, 18 h
[25] = tested on: Enterococcus faecium; experiment: Antibacterial activity against vancomycin-sensitive Enterococcus faecium 12-3 after 18 hrs by CLSI broth microdilution method; assay type: functional; details: 12-3, 18 h
[26] = tested on: Pseudomonas aeruginosa; experiment: Antibacterial activity against Pseudomonas aeruginosa 12-16 after 18 hrs by CLSI broth microdilution method; assay type: functional; details: 12-16, 18 h
[27] = tested on: Escherichia coli; experiment: Antibacterial activity against extended-spectrum beta-lactamase deficient Escherichia coli ATCC 25922 after 18 hrs by CLSI broth microdilution method; assay type: functional; details: ATCC 25922, 18 h
[28] = tested on: Staphylococcus epidermidis; experiment: Antibacterial activity against methicillin-sensitive Staphylococcus epidermidis 12-6 after 18 hrs by CLSI broth microdilution method; assay type: functional; details: 12-6, 18 h
[29] = tested on: Staphylococcus aureus; experiment: Antibacterial activity against methicillin-sensitive Staphylococcus aureus ATCC 29213 after 18 hrs by CLSI broth microdilution method; assay type: functional; details: ATCC 29213, 18 h
[30] = tested on: Staphylococcus aureus; experiment: Antibacterial activity against methicillin-resistant Staphylococcus aureus 12-33 after 18 hrs by CLSI broth microdilution method; assay type: functional; details: 12-33, 18 h
[31] = tested on: Escherichia coli; experiment: Antibacterial activity against extended-spectrum beta-lactamase deficient Escherichia coli 12-14 after 18 hrs by CLSI broth microdilution method; assay type: functional; details: 12-14, 18 h
[32] = tested on: Acinetobacter calcoaceticus; experiment: Antibacterial activity against Acinetobacter calcoaceticus ATCC 19606 after 18 hrs by CLSI broth microdilution method; assay type: functional; details: ATCC 19606, 18 h
[33] = tested on: Enterococcus faecalis; experiment: Antibacterial activity against vancomycin-resistant Enterococcus faecalis ATCC 51299 after 18 hrs by CLSI broth microdilution method; assay type: functional; details: ATCC 51299, 18 h
[34] = tested on: Klebsiella pneumoniae; experiment: Antibacterial activity against extended-spectrum beta-lactamase harboring Klebsiella pneumoniae ATCC 700603 after 18 hrs by CLSI broth microdilution method; assay type: functional; details: Klebsiella pneumoniae, 700603, 18 h
[35] = tested on: Pseudomonas aeruginosa; experiment: Antibacterial activity against Pseudomonas aeruginosa PAO1 after 18 hrs by CLSI broth microdilution method; assay type: functional; details: PAO1, 18 h
[36] = tested on: Enterobacter cloacae; experiment: Antibacterial activity against Enterobacter cloacae ATCC 43560 after 18 hrs by CLSI broth microdilution method; assay type: functional; details: ATCC 43560, 18 h
[37] = tested on: Proteus vulgaris; experiment: Antibacterial activity against Proteus vulgaris ATCC 29905 after 18 hrs by CLSI broth microdilution method; assay type: functional; details: ATCC 29905, 18 h
[38] = tested on: Enterococcus faecium; experiment: Antibacterial activity against vancomycin-resistant Enterococcus faecium ATCC 700221 after 18 hrs by CLSI broth microdilution method; assay type: functional; details: ATCC 700221, 18 h
[39] = tested on: Pseudomonas aeruginosa; experiment: Antibacterial activity against Pseudomonas aeruginosa ATCC 27853 after 18 hrs by CLSI broth microdilution method; assay type: functional; details: ATCC 27853, 18 h
[40] = tested on: Providencia rettgeri; experiment: Antibacterial activity against Providencia rettgeri ATCC 31052 after 18 hrs by CLSI broth microdilution method; assay type: functional; details: ATCC 31052, 18 h
[41] = tested on: Serratia marcescens; experiment: Antibacterial activity against Serratia marcescens ATCC 21074 after 18 hrs by CLSI broth microdilution method; assay type: functional; details: ATCC 21074, 18 h
[42] = tested on: Enterococcus faecium; experiment: Antibacterial activity against vancomycin-resistant Enterococcus faecium 12-1 after 18 hrs by CLSI broth microdilution method; assay type: functional; details: 12-1, 18 h
[43] = tested on: Stenotrophomonas maltophilia; experiment: Antibacterial activity against Stenotrophomonas maltophilia ATCC 13636 after 18 hrs by CLSI broth microdilution method; assay type: functional; details: ATCC 13636, 18 h
[44] = tested on: Enterococcus faecalis; experiment: Antibacterial activity against vancomycin-resistant Enterococcus faecalis 09-9 after 18 hrs by CLSI broth microdilution method; assay type: functional; details: 09-9, 18 h
[45] = tested on: Escherichia coli; experiment: Antibacterial activity against extended-spectrum beta-lactamase harboring Escherichia coli 12-15 after 18 hrs by CLSI broth microdilution method; assay type: functional; details: 12-15, 18 h
[46] = tested on: Staphylococcus epidermidis; experiment: Antibacterial activity against methicillin-resistant Staphylococcus epidermidis 12-8 after 18 hrs by CLSI broth microdilution method; assay type: functional; details: 12-8, 18 h
[47] = tested on: Staphylococcus aureus; experiment: Antibacterial activity against methicillin-resistant Staphylococcus aureus ATCC 33591 after 18 hrs by CLSI broth microdilution method; assay type: functional; details: ATCC 33591, 18 h

Compound: C[C@@H](O)[C@H]1C(=O)N2C(C(=O)O)=C(S[C@@H]3CN[C@H](C(=O)N(C)C)C3)[C@H](C)[C@H]12 [MEROPENEM]
- MIC ([1]; 13-1, 18 h): 32 µg/mL (≈ 83.4 µM)
- MIC ([2]; 13-1, 18 h): 4 µg/mL (≈ 10.4 µM)
- MIC ([3]; 12-11, 18 h): 64 µg/mL (≈ 167 µM)
- MIC ([4]; CDC1000654, 18 h): 2 µg/mL (≈ 5.22 µM)
- MIC ([5]; 12-12, 18 h): 32 µg/mL (≈ 83.4 µM)
- MIC ([6]; CDC1001728, 18 h): 2 µg/mL (≈ 5.22 µM)
- MIC ([7]; 13-1, 18 h): 8 µg/mL (≈ 20.9 µM)
- MIC ([8]; 12-6, 18 h): 32 µg/mL (≈ 83.4 µM)
- MIC ([9]; 11-4, 18 h): 32 µg/mL (≈ 83.4 µM)
- MIC ([10]; 13-1, 18 h): 64 µg/mL (≈ 167 µM)

Compound: COLISTIN
- MIC [1]: 0.5 µg/mL
- MIC [2]: 0.5 µg/mL
- MIC [3]: 0.5 µg/mL
- MIC [4]: 0.5 µg/mL
- MIC [5]: 1 µg/mL
- MIC [6]: 0.5 µg/mL
- MIC [7]: 0.5 µg/mL
- MIC [8]: 0.5 µg/mL
- MIC [9]: 0.5 µg/mL
- MIC [10]: 0.5 µg/mL
- MIC [11]: 0.5 µg/mL

Compound: CCNC(=N)c1ccc2cc(-c3ccc(-c4cc5ccc(C(=N)NCC)cc5[nH]4)cc3)[nH]c2c1
- MIC [12]: 32 µg/mL (≈ 71.3 µM)
- MIC [13]: > 64 µg/mL
- MIC [14]: 16 µg/mL (≈ 35.7 µM)
- MIC [15]: 2 µg/mL (≈ 4.46 µM)
- MIC [16]: 16 µg/mL (≈ 35.7 µM)
- MIC [17]: 1 µg/mL (≈ 2.23 µM)
- MIC [18]: 32 µg/mL (≈ 71.3 µM)
- MIC [19]: 1 µg/mL (≈ 2.23 µM)
- MIC [20]: 16 µg/mL (≈ 35.7 µM)
- CC50 at 48 h [21]: 4.1 µg/mL (≈ 9.14 µM)
- MIC [22]: 0.5 µg/mL (≈ 1.11 µM)
- MIC [23]: 16 µg/mL (≈ 35.7 µM)
- MIC [24]: 1 µg/mL (≈ 2.23 µM)
- MIC [25]: 2 µg/mL (≈ 4.46 µM)
- MIC [26]: 32 µg/mL (≈ 71.3 µM)
- MIC [27]: 8 µg/mL (≈ 17.8 µM)
- MIC [28]: 1 µg/mL (≈ 2.23 µM)
- MIC [29]: 1 µg/mL (≈ 2.23 µM)
- MIC [30]: 1 µg/mL (≈ 2.23 µM)
- MIC [31]: 16 µg/mL (≈ 35.7 µM)
- MIC [32]: 64 µg/mL (≈ 143 µM)
- MIC [33]: 2 µg/mL (≈ 4.46 µM)
- MIC [34]: 32 µg/mL (≈ 71.3 µM)
- MIC [35]: 32 µg/mL (≈ 71.3 µM)
- MIC [36]: 16 µg/mL (≈ 35.7 µM)
- MIC [37]: 64 µg/mL (≈ 143 µM)
- MIC [38]: 1 µg/mL (≈ 2.23 µM)
- MIC [39]: 8 µg/mL (≈ 17.8 µM)
- MIC [40]: 32 µg/mL (≈ 71.3 µM)
- MIC [41]: 32 µg/mL (≈ 71.3 µM)
- MIC [42]: 1 µg/mL (≈ 2.23 µM)
- MIC [43]: 8 µg/mL (≈ 17.8 µM)
- MIC [44]: 2 µg/mL (≈ 4.46 µM)
- MIC [45]: 16 µg/mL (≈ 35.7 µM)
- MIC [46]: 1 µg/mL (≈ 2.23 µM)
- MIC [47]: 1 µg/mL (≈ 2.23 µM)
- MIC ([11]; ATCC BAA-2146, 18 h): 32 µg/mL (≈ 71.3 µM)
